Results reported in patent US20030165580A1, “Safe pharmaceutical composition for treatment and prevention of gynecological disease” (priority 2002, published 2003).

Legend:
interleukin-2 (rIL-2) = experiment: Interleukin-2 (rIL-2) determination; conditions: treatment group
Excerpt: The methods of determination rIL-2 were regular.

uterine peroxidase = experiment: Uterine peroxidase activity (gene product of uterine) in cycloheximide-injured rats; type: in vivo, Sprague-Dawley rats; conditions: treatment group: cycloheximide + LIG, intraperitoneal injection, female rats; P < 0.001 vs control
Procedure: It is known that peroxidase induction is a useful market for estrogen-effected growth responses in uterine. The uterine peroxidase is a useful gene product for assessing effect of hormones on uterine. […] Female Sprague-Dawley rats at 20 days of age, allowed free access to food and water. Castrate rats were the same strain. Rats of normal group were administered in saline solution by intraperitoneal injection. Rats of control group were injected cycloheximide. Rats of treatment group injected cycloherimide+LIG. At the indicated times the rats were sacrificed by decapitation. The entire uterus from oviduct to cervix was removed, quickly dissected free of fat and connective tissue, blotted on hard filter paper, and weighed. Each uterus was minced with a scissors into a 12-ml polycarbonate tube and homogenized, 10 sec with ice cooling in 10 mM Tris.HCl, pH 7.2, buffer (25 mg of tissue per ml unless otherwise stated), with homogenizer. The homogenates were centrifuged for 45 min at 39,000×g at 2°. The hypotonic supernatant fraction contains no peroxidase activity. […] The reaction was started by the addition of enzyme (extract), and initial rates of guaiacol oxidation were determined from the increase in absorbance at 470 nm for the first minutes.

white blood cells = experiment: White blood cells in rats treated by cyclophosphamide; type: in vivo; conditions: LIG + cyclophosphamide, 10 days treatment, P < 0.01 vs control
Excerpt: Action of LIG and cyclophosphamide on white blood cells was investigated by means of white blood cells assay. […] Method of testing in animal is standard. The dosage of LIG and cyclophosphamide is the same as in above examples. Time of treatment is 10 days.

lymphocytes = experiment: Lymphoblastoid transformation test (3H-TdR liquid scintillation); type: in vivo, mice; conditions: treatment group, P < 0.01 vs control
Procedure: By means of ^3H-TdR liquid scintillation assay technique, the action of LIG on lymphoblastoid transformation was investigated method:
(1) Experimental procedure of animal is the same as in Example 2.
(2) Lemphoblastoid transformation test:
a. Culture media—RPMI 1640, medium 199 minimal essential medium (Eagle).
b. Buffer—Hepes buffer, the final concentration at 37° C. was 25 mM, to maintain the pH of the medium at 7.31.
c. Serum—generally 15-205 fetal bovine serum was incorporated, for lymphocytes from mice, 5% was used.
d. Gaseous phase—5% CO2 in air.
e. Cell concentration—generally 1-2×10^6/ml.
f. Stimulants—20 μl/ml for phytohemagglutinin containing polysaccharide (PHA-M) or 10 μl/ml for polysaccharide-free purified phytohemagglutinin (PHA-P).
a. The conditions of cell culture are same as above. ^3H-TdR was added after 48 hours of incubation at a final concentration of 1 μCi/ml and continued the incubation for 24 hours.
b. Washed the cells twice with cold normal saline and the erythrocytes were lysed. The intact lymphocytes were again washed once with cold saline. Spun down the lymphocytes and added 2 ml of 10% trichloroacetic acid to precipitate the protein. Washed twice with normal saline. Added 2 ml of ethanol:ether (1:1) to wash once. […]
c. Added 4 ml of scintillation fluid to 0.1 ml of the final sample and counted in a liquid scintillation counter.

hemopoietic system = experiment: Recovery of hemopoiesis in mice treated by cyclophosphamide; type: in vivo
Excerpt: (§1) Effects of LIG on hemopoietic system were investigated. […] With increased cells in bone-marrow (BMC), endogenous colonies in spleen and higher ^3H-TdR uptake in marrow and spleen. The level of serum colony stimulating factor (CSF) increased after injection.

[1] = tested on: bone marrow stem cells (CFU-S); experiment: Spleen colony assay, bone marrow stem cells (CFU-S); type: in vivo; conditions: treatment group, mice treated by cyclophosphamide; P < 0.01 vs control
Excerpt: as §1, with “injection. […] Pharmacological effects as illustrated by the following table: by means of the spleen colony assay technique the action of LIG on bone marrow stem cells (CFU-S)” for “injection.”

uterine RNA = experiment: Uterine RNA concentration; type: in vivo; conditions: treatment group; absorbance at 260 nm; P < 0.01 vs control
Procedure: Uterine samples (100 mg) were digested in a 4 M guanidium thiocyanate solution, to which was added 50 μl of 2 M sodium acetate (pH 4.0), 500 μl phenol, and finally 200 μl chloroform/isoamyl alcohol (24:1, v/v) sequentially, with mixing after each addition. The RNA from the resultant solution was pelleted by mixing with 1 vol. isopropanol and incubating at −20° C. for 2 h and spun at 12000×g for 12 min, then resuspended in 0.5% sodium dodecyl sulfate (SDS). The RNA suspension was incubated for 10 min at 65° C. and stored at −20° C. until use. RNA concentration was determined by absorbance intensity at 260 nm.

uterine tissues = experiment: DNA synthesis of uterine (3H-TdR) in cycloheximide-injured rats; type: in vivo, Sprague-Dawley rats; conditions: treatment group: cycloheximide + LIG, female rats
Procedure: Female Sprague-Dawley rats at 20 days of age, allowed free access to food and water and, as immature rats, used by age 23 days. Castrate rats were the same strain. Rats of normal group were administered in saline solution by intraperitoneal injection. Rats of control group were injected cycloheximide. Rats of treatment group injected cycloherimide+LIG. At the indicated times the rats were sacrificed by decapitation. The entire uterus from oviduct to cervix was removed, quickly dissected free of fat and connective tissue, blotted on hard filter paper, and weighed. Each uterus was minced with a scissors into a 12-ml polycarbonate tube and homogenized, 10 sec with ice cooling in 10 mM Tris.HCl, pH 7.2, buffer (10 mg of tissue per ml unless otherwise stated), with homogenizer. Aliquets used for DNA analysis. Determination of DNA is used methods of ^3H-TdR.

human blood lymphocytes = experiment: Immune function of human blood lymphocytes (3H-TdR incorporation); type: cell-based; conditions: LIG added to culture medium of lymphocytes from old volunteers (60-70 years)
Procedure: Twenty (20) old volunteers (60-70 years of age) and 10 healthy young persons participated in the experiment. 2 ml of venous blood, heparinized was obtained from each of the participants. The Study of the effects of LIG was carried out by using Eagle's Minimal Essential Medium MEM). MEM was supplemented with 0.125 ml of heat-inactivated fetal calf serum, 100 units of Penicillin and 0.1 mg of streptomycin per ml of medium. Culture medium was divided into treated (LIG) and control group. LIG was added to the culture medium of treatment group. The culture medium of control group was mixed with same volume as that of LIG of normal saline on the 72 hours of culture. The ^3H-thymidine (^3H-TdR) was added into all the cultures (2 μci/ml) for last 12 hours of culture. The cells were harvested on 0.45 μm filters, washed with phosphate buffer (ph 7.4) and bleached with H2O2. The filters were then dried and the incorporation of ^3H-TdR into lymphocytes cell was measured by scintillation counter.

peritoneal macrophages = experiment: Phagocytosis of peritoneal macrophage of mice; type: in vivo; conditions: LIG 5.5 mg/kg intraperitoneally daily for 5 days, cyclophosphamide 4.5 mg/kg; macrophages with phagocytized chick red blood cells per 100 macrophages; P < 0.01 vs control
Procedure: Male mice weight 18-20 g were used in the experiments and were divided into treated (LIG) and control groups. The dosage of LIG was 5.5 mg/kg injected intraperitoneally. The control mice were injected with same volume of normal saline. These injections were repeated daily for 5 days, both treated and control group were injected intraperitoneally with cyclosphosphamide. The dosage of cyclophosphamide is 4.5 mg/kg. The same experimental procedure for example 3, 4 and 5 in testing mice were used. Added 0.02 ml of 5% washed chick red blood cell suspension to 0.5 ml of the peritoneal exudates. Shook gently to mix and incubate at 37° C. for 5 minutes. Dipped two cover slips, closed to each other, in the above mixture and incubated for 30 minutes for the migration of the macrophages along the cover slips, fixed and stained with Sharma stain. Examined microscopically for: Phagocytic rate—number of macrophages with phagocytized chick red blood cells per 100 macrophages counted. Method of animal model is regular.

[2] = mice treated by cyclophosphamide

CCC/C=C1\OC(=O)C2=C1CCC=C2 [LIG, ligustilide] was tested, and the IL-2 (interleukin-2 (rIL-2)) was 75.6 ± 8.9 U/ml, the Peroxidase activity (uterine peroxidase) was 7.6 ± 0.8 Enzyme units/10 mg uterus and the White blood cells (white blood cells) was 13.8 ± 2.0 × 10^3/cm^3. The “Lymphoblastoid transformation CPM ± SD” value (lymphocytes) was 1650 ± 270 CPM, the “Level of serum colony stimulating factor (CSF)” value (hemopoietic system; after injection) was “increased” and the “3H-TdR uptake in marrow and spleen” value (hemopoietic system; [2]) was “higher”. For the same compound, the “Cells in bone-marrow (BMC)” value (hemopoietic system; [2]) was “increased”, the “Recovery rate of hemopoieses” value (hemopoietic system; [2]) was “markedly improve” and the “Mean (CFU-S ± SD)” value [1] was 28.5 ± 3.5. For the same compound, the RNA units (uterine RNA) was 0.92 ± 0.12, the DNA synthesis (uterine tissues) was 1052 ± 110 CPM/10 g uterine tissues and the “3H-TdR incorporation into lymphocytes, CPM” value (human blood lymphocytes) was 2180 ± 360 CPM. The “Phagocytic (rate ± SD)” value (peritoneal macrophages) was 26.8 ± 3.1.
